Test results: article PMC12300041, “Tricyclic Isatin Derivatives as Anti-Inflammatory Compounds with High Kinase Binding Affinity” (Molecules, 2025)

Columns and labels:
Experiment in all cases: KINOMEscan
Type in all cases: binding
ABL1 (Q252H)-P = target: T1, ABL1 (Q252H)-P (Homo sapiens, UniProt P00519, Q252H)
T1 construct: purchased Eurofins DiscoverX KINOMEscan
Method in brief: (§1)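 Read-out is qPCR of kinase not bound to the test compound, recovered by capture on an immobilized affinity ligand after a 1 h room-temperature binding step. Dissociation constants came from 12 half-log dilutions starting at 33 μM.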

ABL1 (T315I)-P = target: T2, ABL1 (T315I)-P (Homo sapiens, UniProt P00519, T315I)
T2 construct: purchased Eurofins DiscoverX KINOMEscan
Method in brief: as §1

ABL1 (T315I)-non-P = target: T3, ABL1 (T315I)-non-P (Homo sapiens, UniProt P00519, T315I)
T3 construct: purchased Eurofins DiscoverX KINOMEscan
Method in brief: as §1

ABL2 = target: T4, ABL2 (Homo sapiens, UniProt P42684)
T4 construct: purchased Eurofins DiscoverX KINOMEscan
Method in brief: as §1

ACVRL1 = target: T5, ACVRL1 (Homo sapiens, UniProt P37023)
T5 construct: purchased Eurofins DiscoverX KINOMEscan
Method in brief: (§2)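 Kd values rest on a 12-point half-log titration, highest concentration 33 μM, with 1 h room-temperature binding and qPCR read-out of affinity-captured free kinase.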

CDK3 = target: T6, CDK3 (Homo sapiens, UniProt Q00526)
T6 construct: purchased Eurofins DiscoverX KINOMEscan
Method in brief: as §1

CDKL5 = target: T7, CDKL5 (Homo sapiens, UniProt O76039)
T7 construct: purchased Eurofins DiscoverX KINOMEscan
Method in brief: as §1

CHEK2 = target: T8, CHEK2 (Homo sapiens, UniProt O96017)
T8 construct: purchased Eurofins DiscoverX KINOMEscan
Method in brief: as §1

CSF1R = target: T9, CSF1R (Homo sapiens, UniProt P07333)
T9 construct: purchased Eurofins DiscoverX KINOMEscan
Method in brief: as §1

EPHA5 = target: T10, EPHA5 (Homo sapiens, UniProt P54756)
T10 construct: purchased Eurofins DiscoverX KINOMEscan
Method in brief: as §2

EPHA7 = target: T11, EPHA7 (Homo sapiens, UniProt Q15375)
T11 construct: purchased Eurofins DiscoverX KINOMEscan
Method in brief: as §1

ERK2 = target: T12, ERK2 (Homo sapiens, UniProt P28482)
T12 construct: purchased Eurofins DiscoverX KINOMEscan
Method in brief: as §1

FLT3 = target: T13, FLT3 (Homo sapiens, UniProt P36888)
T13 construct: purchased Eurofins DiscoverX KINOMEscan
Method in brief: as §1

FRK = target: T14, FRK (Homo sapiens, UniProt P42685)
T14 construct: purchased Eurofins DiscoverX KINOMEscan
Method in brief: as §1

GAK = target: T15, GAK (Homo sapiens, UniProt O14976)
T15 construct: purchased Eurofins DiscoverX KINOMEscan
Method in brief: as §1

KIT (V559D, V654A) = target: T16, KIT (V559D, V654A) (Homo sapiens, UniProt P10721, V559D/V654A)
T16 construct: purchased Eurofins DiscoverX KINOMEscan
Method in brief: as §2

LATS1 = target: T17, LATS1 (Homo sapiens, UniProt O95835)
T17 construct: purchased Eurofins DiscoverX KINOMEscan
Method in brief: as §1

MAK = target: T18, MAK (Homo sapiens, UniProt P20794)
T18 construct: purchased Eurofins DiscoverX KINOMEscan
Method in brief: as §1

MAP3K1 = target: T19, MAP3K1 (Homo sapiens, UniProt Q13233)
T19 construct: purchased Eurofins DiscoverX KINOMEscan
Method in brief: as §1

MAP4K3 = target: T20, MAP4K3 (Homo sapiens, UniProt Q8IVH8)
T20 construct: purchased Eurofins DiscoverX KINOMEscan
Method in brief: as §1

MAP4K4 = target: T21, MAP4K4 (Homo sapiens, UniProt O95819)
T21 construct: purchased Eurofins DiscoverX KINOMEscan
Method in brief: as §1

MLK3 = target: T22, MLK3 (Homo sapiens, UniProt Q16584)
T22 construct: purchased Eurofins DiscoverX KINOMEscan
Method in brief: as §2

MYLK = target: T23, MYLK (Homo sapiens, UniProt Q15746)
T23 construct: purchased Eurofins DiscoverX KINOMEscan
Method in brief: as §1

MYLK2 = target: T24, MYLK2 (Homo sapiens, UniProt Q9H1R3)
T24 construct: purchased Eurofins DiscoverX KINOMEscan
Method in brief: as §1

NEK1 = target: T25, NEK1 (Homo sapiens, UniProt Q96PY6)
T25 construct: purchased Eurofins DiscoverX KINOMEscan
Method in brief: as §1

NIM1 = target: T26, NIM1 (Homo sapiens, UniProt Q8IY84)
T26 construct: purchased Eurofins DiscoverX KINOMEscan
Method in brief: as §1

PAK2 = target: T27, PAK2 (Homo sapiens, UniProt Q13177)
T27 construct: purchased Eurofins DiscoverX KINOMEscan
Method in brief: as §2

PFTK1 = target: T28, PFTK1 (Homo sapiens, UniProt O94921)
T28 construct: purchased Eurofins DiscoverX KINOMEscan
Method in brief: as §2

PIK3CA (I800L) = target: T29, PIK3CA (I800L) (Homo sapiens, UniProt P42336, I800L)
T29 construct: purchased Eurofins DiscoverX KINOMEscan
Method in brief: as §1

PIK4CB = target: T30, PIK4CB (Homo sapiens, UniProt Q9UBF8)
T30 construct: purchased Eurofins DiscoverX KINOMEscan
Method in brief: as §2

PIP5K2B = target: T31, PIP5K2B (Homo sapiens, UniProt P78356)
T31 construct: purchased Eurofins DiscoverX KINOMEscan
Method in brief: as §2

PRKR = target: T32, PRKR (Homo sapiens, UniProt P19525)
T32 construct: purchased Eurofins DiscoverX KINOMEscan
Method in brief: as §1

[1] = target: T33, RSK3 (Kin. Dom.1-N-term.) (Homo sapiens, UniProt Q15349)
T33 construct: RSK3 (Kin. Dom.1-N-term.); purchased Eurofins DiscoverX KINOMEscan
Method in brief: as §1

[2] = target: T34, RSK4 (Kin. Dom.1-N-term.) (Homo sapiens, UniProt Q9UK32)
T34 construct: RSK4 (Kin. Dom.1-N-term.); purchased Eurofins DiscoverX KINOMEscan
Method in brief: as §2

SRMS = target: T35, SRMS (Homo sapiens, UniProt Q9H3Y6)
T35 construct: purchased Eurofins DiscoverX KINOMEscan
Method in brief: as §1

STK33 = target: T36, STK33 (Homo sapiens, UniProt Q9BYT3)
T36 construct: purchased Eurofins DiscoverX KINOMEscan
Method in brief: as §1

VRK2 = target: T37, VRK2 (Homo sapiens, UniProt Q86Y07)
T37 construct: purchased Eurofins DiscoverX KINOMEscan
Method in brief: as §1

ZAK = target: T38, ZAK (Homo sapiens, UniProt Q9NYL2)
T38 construct: purchased Eurofins DiscoverX KINOMEscan
Method in brief: as §1

ZAP70 = target: T39, ZAP70 (Homo sapiens, UniProt P43403)
T39 construct: purchased Eurofins DiscoverX KINOMEscan
Method in brief: as §1

T37 sequence (Q86Y07 whole entry): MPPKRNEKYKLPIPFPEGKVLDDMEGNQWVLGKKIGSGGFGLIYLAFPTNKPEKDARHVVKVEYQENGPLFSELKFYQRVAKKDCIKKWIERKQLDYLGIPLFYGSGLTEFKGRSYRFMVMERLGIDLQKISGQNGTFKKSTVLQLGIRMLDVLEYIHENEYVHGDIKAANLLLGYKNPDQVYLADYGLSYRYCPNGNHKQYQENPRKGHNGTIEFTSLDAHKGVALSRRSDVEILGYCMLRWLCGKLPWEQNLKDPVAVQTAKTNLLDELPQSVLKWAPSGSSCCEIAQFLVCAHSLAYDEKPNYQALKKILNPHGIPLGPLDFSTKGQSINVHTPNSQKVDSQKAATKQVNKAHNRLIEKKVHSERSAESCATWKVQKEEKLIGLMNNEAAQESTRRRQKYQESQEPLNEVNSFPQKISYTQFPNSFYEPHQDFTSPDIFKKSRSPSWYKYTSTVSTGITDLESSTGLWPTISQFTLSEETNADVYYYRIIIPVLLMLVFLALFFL
T22 sequence (Q16584 whole entry): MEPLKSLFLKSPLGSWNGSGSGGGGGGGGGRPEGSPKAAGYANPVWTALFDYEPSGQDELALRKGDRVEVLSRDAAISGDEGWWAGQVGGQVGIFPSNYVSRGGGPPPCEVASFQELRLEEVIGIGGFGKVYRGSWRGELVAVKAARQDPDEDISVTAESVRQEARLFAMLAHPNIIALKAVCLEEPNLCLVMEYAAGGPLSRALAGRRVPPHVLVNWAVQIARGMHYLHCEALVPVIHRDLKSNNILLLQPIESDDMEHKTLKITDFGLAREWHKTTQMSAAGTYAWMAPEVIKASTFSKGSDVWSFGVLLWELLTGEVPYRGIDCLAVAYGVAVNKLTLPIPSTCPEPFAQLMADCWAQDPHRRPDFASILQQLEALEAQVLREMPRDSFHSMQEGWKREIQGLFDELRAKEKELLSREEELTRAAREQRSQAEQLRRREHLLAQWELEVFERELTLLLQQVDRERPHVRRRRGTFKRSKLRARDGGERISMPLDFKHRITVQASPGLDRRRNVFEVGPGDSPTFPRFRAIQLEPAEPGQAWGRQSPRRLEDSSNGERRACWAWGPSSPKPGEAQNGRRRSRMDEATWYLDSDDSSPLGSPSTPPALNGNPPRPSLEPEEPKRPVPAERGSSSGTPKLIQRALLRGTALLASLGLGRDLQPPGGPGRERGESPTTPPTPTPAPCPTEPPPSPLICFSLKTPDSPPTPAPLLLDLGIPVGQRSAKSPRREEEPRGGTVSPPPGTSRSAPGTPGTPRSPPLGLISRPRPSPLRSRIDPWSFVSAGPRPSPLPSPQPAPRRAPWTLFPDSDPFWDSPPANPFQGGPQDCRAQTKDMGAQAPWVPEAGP
T30 sequence (Q9UBF8 whole entry): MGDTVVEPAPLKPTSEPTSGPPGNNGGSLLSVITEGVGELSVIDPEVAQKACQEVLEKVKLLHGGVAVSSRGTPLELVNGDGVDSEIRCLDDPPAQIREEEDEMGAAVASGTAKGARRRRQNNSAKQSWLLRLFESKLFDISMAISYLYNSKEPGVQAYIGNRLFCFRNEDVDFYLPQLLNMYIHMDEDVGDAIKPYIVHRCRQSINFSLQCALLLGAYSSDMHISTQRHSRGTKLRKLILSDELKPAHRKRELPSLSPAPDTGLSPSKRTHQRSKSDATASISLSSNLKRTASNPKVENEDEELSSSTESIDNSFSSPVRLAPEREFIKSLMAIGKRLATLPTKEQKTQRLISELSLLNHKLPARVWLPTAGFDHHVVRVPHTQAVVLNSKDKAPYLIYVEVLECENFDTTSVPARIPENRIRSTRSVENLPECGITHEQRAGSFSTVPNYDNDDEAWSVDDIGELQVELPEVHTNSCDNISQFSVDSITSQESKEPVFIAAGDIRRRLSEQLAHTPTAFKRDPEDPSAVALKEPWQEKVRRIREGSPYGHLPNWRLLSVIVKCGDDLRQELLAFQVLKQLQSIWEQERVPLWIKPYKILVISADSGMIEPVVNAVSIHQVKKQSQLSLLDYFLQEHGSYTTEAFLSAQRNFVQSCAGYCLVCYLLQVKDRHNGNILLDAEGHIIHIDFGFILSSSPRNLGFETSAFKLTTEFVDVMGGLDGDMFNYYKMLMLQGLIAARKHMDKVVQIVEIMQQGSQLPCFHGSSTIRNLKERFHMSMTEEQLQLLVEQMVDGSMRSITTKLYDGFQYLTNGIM
T24 sequence (Q9H1R3 whole entry): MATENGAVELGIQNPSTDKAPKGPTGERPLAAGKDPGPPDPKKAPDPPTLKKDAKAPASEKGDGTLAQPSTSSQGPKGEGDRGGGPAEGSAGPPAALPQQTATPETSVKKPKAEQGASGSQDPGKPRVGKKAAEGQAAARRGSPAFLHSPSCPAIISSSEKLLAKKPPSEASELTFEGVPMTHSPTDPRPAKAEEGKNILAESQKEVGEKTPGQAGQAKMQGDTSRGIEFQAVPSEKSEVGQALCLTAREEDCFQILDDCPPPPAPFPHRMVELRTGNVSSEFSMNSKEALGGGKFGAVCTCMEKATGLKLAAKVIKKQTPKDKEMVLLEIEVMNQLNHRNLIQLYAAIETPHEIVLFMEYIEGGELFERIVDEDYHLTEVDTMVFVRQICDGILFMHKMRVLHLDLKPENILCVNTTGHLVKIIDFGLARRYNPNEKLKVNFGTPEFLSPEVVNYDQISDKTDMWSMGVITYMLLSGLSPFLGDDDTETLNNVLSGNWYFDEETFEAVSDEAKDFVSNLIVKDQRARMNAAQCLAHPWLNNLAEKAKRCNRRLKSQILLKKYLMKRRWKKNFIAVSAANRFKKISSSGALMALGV
T32 sequence (P19525 whole entry): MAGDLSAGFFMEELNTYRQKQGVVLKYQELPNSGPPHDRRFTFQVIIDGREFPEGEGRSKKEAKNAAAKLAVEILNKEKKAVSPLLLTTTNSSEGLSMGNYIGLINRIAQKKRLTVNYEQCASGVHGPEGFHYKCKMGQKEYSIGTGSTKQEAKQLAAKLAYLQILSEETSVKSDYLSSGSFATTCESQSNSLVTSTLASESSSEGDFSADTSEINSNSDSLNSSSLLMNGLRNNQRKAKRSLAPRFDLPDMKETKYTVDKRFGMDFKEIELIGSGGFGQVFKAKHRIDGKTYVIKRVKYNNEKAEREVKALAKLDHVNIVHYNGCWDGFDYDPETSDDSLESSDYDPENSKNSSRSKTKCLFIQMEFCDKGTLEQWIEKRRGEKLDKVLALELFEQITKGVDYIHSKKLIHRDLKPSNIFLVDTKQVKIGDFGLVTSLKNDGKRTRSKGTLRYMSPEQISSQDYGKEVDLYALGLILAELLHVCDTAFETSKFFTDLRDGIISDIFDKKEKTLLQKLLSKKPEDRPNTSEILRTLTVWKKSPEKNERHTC
T25 sequence (Q96PY6 whole entry): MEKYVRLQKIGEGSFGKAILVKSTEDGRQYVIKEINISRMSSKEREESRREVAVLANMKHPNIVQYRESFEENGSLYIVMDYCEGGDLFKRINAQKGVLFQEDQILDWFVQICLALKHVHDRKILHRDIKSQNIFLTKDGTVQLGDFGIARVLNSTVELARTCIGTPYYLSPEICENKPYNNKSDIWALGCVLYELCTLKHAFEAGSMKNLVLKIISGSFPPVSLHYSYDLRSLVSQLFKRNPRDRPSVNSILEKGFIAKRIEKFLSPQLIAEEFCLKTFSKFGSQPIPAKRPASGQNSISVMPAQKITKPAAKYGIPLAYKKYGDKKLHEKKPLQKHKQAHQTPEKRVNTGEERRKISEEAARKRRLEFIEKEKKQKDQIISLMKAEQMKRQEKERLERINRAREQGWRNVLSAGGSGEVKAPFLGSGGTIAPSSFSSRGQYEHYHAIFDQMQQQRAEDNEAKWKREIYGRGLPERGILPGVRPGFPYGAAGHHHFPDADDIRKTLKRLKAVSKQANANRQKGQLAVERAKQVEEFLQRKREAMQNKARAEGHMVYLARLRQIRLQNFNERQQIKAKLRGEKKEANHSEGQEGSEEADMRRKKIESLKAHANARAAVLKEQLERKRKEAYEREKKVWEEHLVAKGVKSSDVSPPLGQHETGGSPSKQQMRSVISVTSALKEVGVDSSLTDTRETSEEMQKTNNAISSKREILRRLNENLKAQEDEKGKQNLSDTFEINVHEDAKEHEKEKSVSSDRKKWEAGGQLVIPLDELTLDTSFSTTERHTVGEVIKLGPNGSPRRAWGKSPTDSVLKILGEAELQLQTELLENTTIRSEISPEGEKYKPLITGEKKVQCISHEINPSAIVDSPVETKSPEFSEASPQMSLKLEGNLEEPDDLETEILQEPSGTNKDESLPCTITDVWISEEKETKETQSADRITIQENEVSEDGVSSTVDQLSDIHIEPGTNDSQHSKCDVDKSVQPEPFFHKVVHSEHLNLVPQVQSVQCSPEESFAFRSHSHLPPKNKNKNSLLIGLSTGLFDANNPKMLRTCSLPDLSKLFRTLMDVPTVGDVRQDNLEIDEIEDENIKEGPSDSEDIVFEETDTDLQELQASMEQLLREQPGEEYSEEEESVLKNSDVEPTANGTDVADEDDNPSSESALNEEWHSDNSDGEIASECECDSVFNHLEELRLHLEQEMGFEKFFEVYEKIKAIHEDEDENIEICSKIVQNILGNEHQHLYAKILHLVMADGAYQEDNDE
T35 sequence (Q9H3Y6 whole entry): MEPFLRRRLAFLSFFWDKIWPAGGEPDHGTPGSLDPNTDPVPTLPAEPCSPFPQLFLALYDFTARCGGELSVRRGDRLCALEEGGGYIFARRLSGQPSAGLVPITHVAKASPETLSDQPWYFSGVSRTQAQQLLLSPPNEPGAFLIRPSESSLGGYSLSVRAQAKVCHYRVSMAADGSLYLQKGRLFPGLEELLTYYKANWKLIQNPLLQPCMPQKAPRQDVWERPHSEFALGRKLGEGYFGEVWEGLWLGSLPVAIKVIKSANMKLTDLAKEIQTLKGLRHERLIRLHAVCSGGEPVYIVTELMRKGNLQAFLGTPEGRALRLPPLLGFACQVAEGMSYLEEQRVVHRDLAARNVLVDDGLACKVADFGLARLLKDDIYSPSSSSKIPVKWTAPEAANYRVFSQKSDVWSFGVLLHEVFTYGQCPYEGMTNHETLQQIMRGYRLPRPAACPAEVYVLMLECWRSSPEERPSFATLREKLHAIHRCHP

O=C1Nc2c(cc([N+](=O)[O-])c3c2CCCC3)C1=NO [Compound 5d, 3-(Hydroxyimino)-5-nitro-1,3,6,7,8,9-hexahydro-2H-benzo[g]indol-2-one]
inhibition at 10 µM (ABL1 (Q252H)-P): 47%
inhibition at 10 µM (ABL1 (T315I)-P): 17%
inhibition at 10 µM (ABL1 (T315I)-non-P): 1%
inhibition at 10 µM (ABL2): 2%
inhibition at 10 µM (ACVRL1): 0%
inhibition at 10 µM (CDK3): 13%
inhibition at 10 µM (CDKL5): 0%
inhibition at 10 µM (CHEK2): 48%
inhibition at 10 µM (CSF1R): 0%
inhibition at 10 µM (EPHA5): 9%
inhibition at 10 µM (EPHA7): 9%
inhibition at 10 µM (ERK2): 8%
inhibition at 10 µM (FLT3): 12%
inhibition at 10 µM (FRK): 0%
inhibition at 10 µM (GAK): 49%
inhibition at 10 µM (KIT (V559D, V654A)): 0%
inhibition at 10 µM (LATS1): 0%
inhibition at 10 µM (MAK): 5%
inhibition at 10 µM (MAP3K1): 6%
inhibition at 10 µM (MAP4K3): 11%
inhibition at 10 µM (MAP4K4): 47%
inhibition at 10 µM (MLK3): 31%
inhibition at 10 µM (MYLK): 93.9%
inhibition at 10 µM (MYLK2): 30%
inhibition at 10 µM (NEK1): 31%
inhibition at 10 µM (NIM1): 52%
inhibition at 10 µM (PAK2): 41%
inhibition at 10 µM (PFTK1): 0%
inhibition at 10 µM (PIK3CA (I800L)): 5%
inhibition at 10 µM (PIK4CB): 95.9%
inhibition at 10 µM (PIP5K2B): 64%
inhibition at 10 µM (PRKR): 6%
inhibition at 10 µM [1]: 2%
inhibition at 10 µM [2]: 77%
inhibition at 10 µM (SRMS): 29%
inhibition at 10 µM (STK33): 62%
inhibition at 10 µM (VRK2): 0%
inhibition at 10 µM (ZAK): 14%
inhibition at 10 µM (ZAP70): 2%
